Values after ≈ are worked out from the molar mass of the structure shown. Values joined by “and” are separate entries in the source; they are usually repeats but may differ in a detail not shown here. Equal entries are not always repeated. “Also recorded” adds a separate entry of the source.
Assays:
[1] = test system: southern armyworm (Spodoptera eridania); assay: Insecticidal activity against southern armyworm; assay type: in vivo; conditions: both application rates, 1000 and 500 ppm, 14 days
Protocol: (§1) The present compounds were tested for insecticidal activity against cabbage looper (Trichoplusia ni [Hubner]), and southern armyworm (Spodoptera eridania) at application rates of 1000 and 500 ppm. The tests were conducted in petri dishes containing a solid food source in which the test compounds had been incorporated. The petri dishes containing the treated food source were infested with second instar larvae of southern armyworms or cabbage loopers. Ten larvae per replicate and two replicates per test rate were used. Mortality data were taken 14 days after infestation.

mice = assay: Behavioral assay in mice (Campbell and Richter), sixteen behavioral signs; assay type: in vivo; conditions: injected, after 30 minutes
Protocol: The behavioral assay in mice was carried out using the procedures of Campbell and Richter (D. E. S. Campbell and W. Richter, Acta Pharmacol. et Toxicol. 25, 345 (1967)). The method involved injection of five mice with the drug and obseving for sixteen behavioral signs after 30 minutes. A recognizable pattern will be apparent, characteristic of various CNS-activities: sympathomimetic, tranquilizer, etc.
Ten male Swiss mice (20-25 g) were divided into groups. One group was injected with physiological saline to serve as control. The other group was injected with 15 mg/Kg of benzene-partition sample (prepared as in Example 2) in suspension form (0.6 mg/ml) in physiological saline solution containing 0.5% carboxymethylcellulose. […] These are all considered as indicators of neuroleptic activity.

[2] = test system: cabbage looper (Trichoplusia ni [Hubner]); assay: Insecticidal activity against cabbage looper; assay type: in vivo; conditions: Trichoplusia ni, 336 h, second instar larvae, 14 days
Protocol: as §1

[3] = Suppression of aggressiveness in isolated mice; assay type: in vivo, male Swiss mice; conditions: eighty minutes after injection; for % Inhibition of Aggressiveness: 2 mg/Kg
Protocol: They were not disturbed except for replacement of food. Under these conditions, about two thirds of the mice became aggressive as manifested by vicious attacks within one minute on a nonisolated male mouse placed in their cage. Such combative mice were divided into two groups. With one group held as the control, the mice in other group were injected with SC-8 at 2 or 1 mg/Kg. The mice were tested for aggressiveness before the injection and eighty minutes after the injection. If no fighting took place with a nonisolated mouse introduced into the cage, this was regarded as inhibition of aggressiveness (P. A. J. Janssen, A. H. Jageneau and C. J. E. Niemegeers; J. Pharmacol, Exp. Ther. 129, 471 (1960)). The experiment was repeated with SC-8 at 2 mg/Kg.

[4] = Morphine antagonism (Straub tail phenomenon); conditions: SC-8 1.5 mg/Kg, morphine sulfate 20 mg/Kg ip
[5] = test system: mosquito larvae (Aedes aegypti); assay: Mosquito larvae test; assay type: in vivo; conditions: 24 hours
Protocol: Similarly, in a test using mosquito larvae (Aedes aegypti) as the insect test species, SC-7 gave 15% mortality and SC-8 gave 93% mortality at an application rate of 100 ppm. In this test, one ml of a solution of 1000 ppm of the test compound in 10% acetone - 90% water was added to 9 ml of water in a culture tube. Ten mosquito larvae were added, and mortality readings were taken 24 hours later.

M. incognita = assay: Effect on nematode motility; assay type: in vivo, Meloidogyne incognita; conditions: 24 hours, of 300 juveniles; for Number of Motile Nematodes, Avg.: water 233.6
Protocol: In a separate test, 300 juveniles of M. incognita were placed in a container closed with a screen of openings 17 μm and exposed to various concentrations of the test compound. After 24 hours, the number of nematodes able to migrate downward (from the inverted container) were counted. Eight replicates were run for each sample, and the results were analyzed by Duncan's

Pimephales promelas = assay: Acute toxicity to fish; assay type: in vivo; conditions: for % Mortality, Avg / % Mortality, single replicates (1 to 6): 2 hours; for % Mortality, single replicates (1 to 6): 120 min
Protocol: Many compounds having insecticidal activity also show toxicity to fish. For example, rotenoids, pyrethrins, and DDT have significant toxicity to fish. For this reason, fish have been used frequently to indicate potential insecticidal activity. The present compounds were tested for acute toxicity to fish by the method described in "Methods For Acute Toxicity Tests With Fish, Macro-Invertebrates and Amphibians", EPA 660/3-75-009, Committee on Methods for Toxicity Tests With Aquatic Organisms, Environmental Protection Agency, Corvallis, OR, 1975.
The fish, commonly known as Missouri minnows or fat heads (Pimephales promelas, family, cyprinidae) were purchased from a local hatchery and equilibrated to the new surroundings for 24 hours. They were kept in deionized water, previously adjusted to pH 6.5 with phosphate buffer at 23° C. Sufficient oxygen was provided, and the fish were deprived of food during the test period.
Groups of six fish were placed in containers with different concentrations of the test compound. The percent mortality was recorded every 30 minutes. The LC 50 values (mg/L) and 95% confidence limits were determined from the percent mortality data after 2 hours of exposure from 6 separate replicates using the method of Lichfield and Wiloxon [(J. Pharmacology and Exp. Therepeutics, 96, 99-113 (1949))].

[6] = Antiamphetamine activity (method of Weissman et al., mice instead of rats); assay type: in vivo
Protocol: Neuroleptic drugs are said to bind to postsynaptic dopamine receptors in the brain, thereby blocking dopaminergic transmission. […] Based on this, an assay for possible neuroleptic activity was developed and is commonly used. […] 151, 339 (1966)), except that mice were used instead of rats. A comparison under the same conditions was also made of the antiamphetamine activity of a standard neuroleptic drug, haloperidol, which gave an ED50 value of 0.5 mg/Kg (Table 2).

In the case of `COc1ccc(C(O)C(C)Oc2ccc([C@@H]3O[C@@H](c4ccc(OC(C)C(O)c5ccc(OC)c(OC)c5)c(OC)c4)[C@@H](C)[C@@H]3C)cc2OC)cc1OC` (stereo partly drawn) [SC-8, 2α,5β-bis[3-methoxy-4-{threo-3-hydroxy-3-(3,4-dimethoxyphenyl)}isopropoxyphenyl]-3α,4β-dimethyltetrahydrofuran], the “insecticidal activity, southern armyworm” value [1] is reported as “inactive”, the behavioral signs (mice) is reported as “head drop with righting reflex; also recorded: decreased locomotion; also recorded: abduced hindlegs with righting reflex; also recorded: unsteady gait; also recorded: catalepsy” and the “lowering of body temperature from 37° to” value (mice; from 37°) is reported as 31 °. The mortality at 500 ppm ([2]; 500 ppm in food) was 90%, the mortality at 1000 ppm ([2]; 1000 ppm in food) was 100% and the “Inhibition of Aggressiveness (in words)” value ([3]; 1 mg/Kg, 3 mice) was “Slight”. For the same molecule, the “% Inhibition of Aggressiveness” value ([3]; 3 mice) was > 75%, the “% Inhibition of Aggressiveness” value ([3]; 5 mice, repeat experiment) was > 75% and the “effect on morphine-induced Straub tail” value [4] was “counteracted this effect”. For the same molecule, the “Degree of Tail Elevation, After 20 min.” value ([4]; before SC-8 40°) was 10 °, the “Degree of Tail Elevation, After 50 min.” value ([4]; before SC-8 40°) was 10 ° and the mortality at 100 ppm [5] was 93%. For the same molecule, the “Number of Motile Nematodes, single replicates (1 to 8)” value (from here on “Number of Motile Nematodes … (1 to 8)”) (M. incognita; 1 ppm) was 258 and 233 and 186 and 340 and 295 and 248 and 103 and 238, the “Number of Motile Nematodes, Avg.” value (M. incognita; 1 ppm) was 237.6 and the “Number of Motile Nematodes … (1 to 8)” value (M. incognita; 5 ppm) was 113 and 294 and 223 and 236 and 264 and 256 and 205 and 211. For the same molecule, the “Number of Motile Nematodes, Avg.” value (M. incognita; 5 ppm) was 225.3, the “Number of Motile Nematodes … (1 to 8)” value (M. incognita; 10 ppm) was 188 and 170 and 174 and 263 and 204 and 214 and 228 and the “Number of Motile Nematodes, Avg.” value (M. incognita; 10 ppm) was 201.4. For the same molecule, the “Number of Motile Nematodes … (1 to 8)” value (M. incognita; 25 ppm) was 67 and 85 and 97 and 56 and 99 and 120 and 131 and 84, the “Number of Motile Nematodes, Avg.” value (M. incognita; 25 ppm) was 92.4 and the “Number of Motile Nematodes … (1 to 8)” value (M. incognita; 50 ppm) was 163 and 223 and 109 and 102 and 31 and 232 and 225 and 108. For the same molecule, the “Number of Motile Nematodes, Avg.” value (M. incognita; 50 ppm) was 149.1, the “% Mortality, Avg” value (Pimephales promelas; 0.13 mg/L) was 9% and the “% Mortality, single replicates (1 to 6)” value (Pimephales promelas; 0.13 mg/L) was 0% (3×) and 17% (3×). The “% Mortality, Avg” value (Pimephales promelas; 0.25 mg/L) was 28%, the “% Mortality, single replicates (1 to 6)” value (Pimephales promelas; 0.25 mg/L) was 33% (4×) and 17% (2×) and the “% Mortality, Avg” value (Pimephales promelas; 0.38 mg/L) was 50%. The “% Mortality, single replicates (1 to 6)” value (Pimephales promelas; 0.38 mg/L) was 67% and 50% (4×) and 33%, the “% Mortality, Avg” value (Pimephales promelas; 0.5 mg/L) was 64% and the “% Mortality, single replicates (1 to 6)” value (Pimephales promelas; 0.5 mg/L) was 67% (5×) and 50%. For the same molecule, the “% Mortality, Avg” value (Pimephales promelas; 0.75 mg/L) was 75%, the “% Mortality, single replicates (1 to 6)” value (Pimephales promelas; 0.75 mg/L) was 83% (3×) and 67% (3×) and the “% Mortality, Avg” value (Pimephales promelas; 1.0 mg/L) was 97%. For the same molecule, the “% Mortality, single replicates (1 to 6)” value (Pimephales promelas; 1.0 mg/L) was 100% (5×) and 83%, the LC50 (Pimephales promelas; 2 hours of exposure, pH 6.5, 23° C) was 0.48 µg/mL (≈ 0.655 µM) and the ED50 ([6]; Mus musculus, mice, inhibition of amphetamine-induced agitation, stereotypy, body-hydration) was 0.2 mg/kg. For the same molecule, the “% Inhibition (antiamphetamine activity)” value ([6]; mice, dose 0.03 mg/Kg) was 20%, the “% Inhibition (antiamphetamine activity)” value ([6]; mice, dose 0.1 mg/Kg) was 40% and the “% Inhibition (antiamphetamine activity)” value ([6]; mice, dose 0.3 mg/Kg) was 60%. The “% Inhibition (antiamphetamine activity)” value ([6]; mice, dose 0.5 mg/Kg) was 60%, the “% Inhibition (antiamphetamine activity)” value ([6]; mice, dose 1.0 mg/Kg) was 70% and the “% Inhibition (antiamphetamine activity)” value ([6]; mice, dose 1.2 mg/Kg) was 80%. For the same molecule, the “% Inhibition (antiamphetamine activity)” value ([6]; mice, dose 1.5 mg/Kg) was 80% and the “inhibiting hyperactivity, agitation, and other effects induced by CNS stimulants of the amphetamine class (summary)” value ([6]; summary statement, no dose) was “significant activity”.

Reference: US4619943A, “Neolignans of Saururus cernuus L and analogues thereof” (priority 1984, dated 1986)
